Results on 31 compounds are retold here after patent US20150133426A1, “SUBSTITUTED PYRROLOPYRIMIDINES” (BAYER PHARMA AKTIENGESELLSCHAFT, priority 2012, published 2015).

Structures can show the parent of a compound that is named as a salt.

T1 sequence (Q9BUB5 1-424 isoform Q9BUB5-2 T344D): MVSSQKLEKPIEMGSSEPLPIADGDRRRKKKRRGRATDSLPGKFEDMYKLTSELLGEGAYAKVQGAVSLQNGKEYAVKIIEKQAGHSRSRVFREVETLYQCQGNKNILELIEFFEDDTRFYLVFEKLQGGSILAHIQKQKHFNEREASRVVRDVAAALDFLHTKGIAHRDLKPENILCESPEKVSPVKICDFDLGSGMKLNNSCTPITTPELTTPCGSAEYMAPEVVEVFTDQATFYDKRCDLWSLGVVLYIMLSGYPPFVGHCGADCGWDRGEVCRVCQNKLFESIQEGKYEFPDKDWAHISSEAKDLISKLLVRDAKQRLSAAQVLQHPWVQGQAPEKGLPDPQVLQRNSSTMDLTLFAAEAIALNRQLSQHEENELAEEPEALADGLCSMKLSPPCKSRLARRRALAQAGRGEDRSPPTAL

This assay addresses T1, human full-length MKNK1 (Homo sapiens, UniProt Q9BUB5, T385D).
T1 construct: purchased Carna Biosciences 02-145; host or cells: insect cells, baculovirus expression system
In words: MKNK1 kinase high ATP assay (TR-FRET). Type of assay: biochemical. As to conditions: high ATP (2 mM), 15 min preincubation with enzyme, GST-MKNK1 (T344D). The essentials:
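GST-tagged full-length human MKNK1 (aa 1-424, T344D), baculovirus-expressed, preincubated 15 min with compound, then reacted 30 min at 22 °C with 2 mM ATP and 0.06 µM biotinylated peptide (final).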
As a reminder, the IC50 is the concentration that inhibits the measured activity by half. The low end stands for greater potency in that assay, the high end for weaker potency in that assay. Consider `CS(=O)(=O)CCCNC(=O)C1CCc2[nH]c3ncnc(Nc4ccc(Cl)c(Cl)c4)c3c2C1` (racemic) [Example 166, (RS)-4-[(3,4-Dichlorophenyl)amino]-N-[3-(methylsulfonyl)propyl]-6,7,8,9-tetrahydro-5H-pyrimido[4,5-b]indole-6-carboxamide], for which the IC50 came to 45 nM.
To `CS(=O)(=O)CCCNC(=O)C1CCc2[nH]c3ncnc(Nc4ccccc4OC4CCOC4)c3c2C1` (racemic) [Example 167, (RS)—N-[3-(Methylsulfonyl)propyl]-4-{[2-(tetrahydrofuran-3-yloxy)phenyl]amino}-6,7,8,9-tetrahydro-5H-pyrimido[4,5-b]indole-6-carboxamide] belongs 70 nM; to `CS(=O)(=O)CCCNC(=O)C1CCc2[nH]c3ncnc(N4CCc5ccccc54)c3c2C1` (racemic) [Example 168, (RS)-4-(2,3-Dihydro-1H-indol-1-yl)-N-[3-(methylsulfonyl)propyl]-6,7,8,9-tetrahydro-5H-pyrimido[4,5-b]indole-6-carboxamide], 803 nM; to `Cc1nc2c(Nc3ncnc4[nH]c5c(c34)CC(C(=O)NCCCS(C)(=O)=O)CC5)cccc2[nH]1` (racemic) [Example 169, (RS)-4-[(2-Methyl-1H-benzimidazol-4-yl)amino]-N-[3-(methylsulfonyl)propyl]-6,7,8,9-tetrahydro-5H-pyrimido[4,5-b]indole-6-carboxamide], 2700 nM.
To `CCOC(=O)C1CCc2[nH]c3ncnc(Nc4ccccc4OC4CCCC4)c3c2C1` (racemic) [Example 170, (RS)-Ethyl 4-{[2-(cyclopentyloxy)phenyl]amino}-6,7,8,9-tetrahydro-5H-pyrimido[4,5-b]indole-6-carboxylate] belongs 1900 nM; to `CCOC(=O)C1CCc2[nH]c3ncnc(Nc4cc(F)ccc4OC)c3c2C1` (racemic) [Example 171, (RS)-Ethyl 4-[(5-fluoro-2-methoxyphenyl)amino]-6,7,8,9-tetrahydro-5H-pyrimido[4,5-b]indole-6-carboxylate], 6090 nM.
To `CCOC(=O)C1CCc2[nH]c3ncnc(Nc4ccccc4N4CCOCC4)c3c2C1` (racemic) [Example 172, (RS)-Ethyl 4-{[2-(morpholin-4-yl)phenyl]amino}-6,7,8,9-tetrahydro-5H-pyrimido[4,5-b]indole-6-carboxylate] belongs 751 nM.
Compound `CCOC(=O)C1CCc2[nH]c3ncnc(N4CCc5ccccc54)c3c2C1` (racemic) [Example 173, (RS)-Ethyl 4-(2,3-dihydro-1H-indol-1-yl)-6,7,8,9-tetrahydro-5H-pyrimido[4,5-b]indole-6-carboxylate] gave an IC50 of 3600 nM.
As to `CCOC(=O)C1CCc2[nH]c3ncnc(Nc4ccc(F)cc4OC(C)C)c3c2C1` (racemic) [Example 174, (RS)-Ethyl 4-{[4-fluoro-2-(propan-2-yloxy)phenyl]amino}-6,7,8,9-tetrahydro-5H-pyrimido[4,5-b]indole-6-carboxylate], inhibition was half-maximal at 706 nM (IC50).
`CCOC(=O)C1CCc2[nH]c3ncnc(Nc4cc(Cl)ccc4OC)c3c2C1` (racemic) [Example 175, (RS)-Ethyl 4-[(5-chloro-2-methoxyphenyl)amino]-6,7,8,9-tetrahydro-5H-pyrimido[4,5-b]indole-6-carboxylate] registered an IC50 of 359 nM.
To `CCOC(=O)C1CCc2[nH]c3ncnc(Nc4ccc(F)cc4OCCO)c3c2C1` (racemic) [Example 176, (RS)-Ethyl 4-{[4-fluoro-2-(2-hydroxyethoxy)phenyl]amino}-6,7,8,9-tetrahydro-5H-pyrimido[4,5-b]indole-6-carboxylate] belongs 174 nM; to `CCOC(=O)C1CCc2[nH]c3ncnc(Nc4cc(Cl)ccc4OC(C)C)c3c2C1` (racemic) [Example 177, (RS)-Ethyl 4-{[5-chloro-2-(propan-2-yloxy)phenyl]amino}-6,7,8,9-tetrahydro-5H-pyrimido[4,5-b]indole-6-carboxylate], 17000 nM.
To `CCOC(=O)C1CCc2[nH]c3ncnc(Nc4ccc(Cl)c(Cl)c4)c3c2C1` (racemic) [Example 178, (RS)-Ethyl 4-[(3,4-dichlorophenyl)amino]-6,7,8,9-tetrahydro-5H-pyrimido[4,5-b]indole-6-carboxylate] belongs 215 nM.
To `CCOC(=O)C1CCc2[nH]c3ncnc(Nc4cc5cn[nH]c5cc4OC)c3c2C1` (racemic) [Example 179, (RS)-Ethyl 4-[(6-methoxy-1H-indazol-5-yl)amino]-6,7,8,9-tetrahydro-5H-pyrimido[4,5-b]indole-6-carboxylate] belongs 13 nM; to `O=C(O)C1CCc2[nH]c3ncnc(Nc4ccccc4OC4CCCC4)c3c2C1` (racemic) [Example 180, (RS)-4-{[2-(Cyclopentyloxy)phenyl]amino}-6,7,8,9-tetrahydro-5H-pyrimido[4,5-b]indole-6-carboxylic acid], 2890 nM; to `COc1ccc(F)cc1Nc1ncnc2[nH]c3c(c12)CC(C(=O)O)CC3` (racemic) [Example 181, (RS)-4-[(5-Fluoro-2-methoxyphenyl)amino]-6,7,8,9-tetrahydro-5H-pyrimido[4,5-b]indole-6-carboxylic acid], 1100 nM.
`O=C(O)C1CCc2[nH]c3ncnc(Nc4ccc(F)cc4OCCO)c3c2C1` (racemic) [Example 182, (RS)-4-{[4-Fluoro-2-(2-hydroxyethoxy)phenyl]amino}-6,7,8,9-tetrahydro-5H-pyrimido[4,5-b]indole-6-carboxylic acid] came in with an IC50 of 251 nM.
To `CC(C)Oc1cc(F)ccc1Nc1ncnc2[nH]c3c(c12)CC(C(=O)O)CC3` (racemic) [Example 183, (RS)-4-{[4-Fluoro-2-(propan-2-yloxy)phenyl]amino}-6,7,8,9-tetrahydro-5H-pyrimido[4,5-b]indole-6-carboxylic acid] belongs 406 nM.
To `COc1cc2[nH]ncc2cc1Nc1ncnc2[nH]c3c(c12)CC(C(=O)O)CC3` (racemic) [Example 184, (RS)-4-[(6-Methoxy-1H-indazol-5-yl)amino]-6,7,8,9-tetrahydro-5H-pyrimido[4,5-b]indole-6-carboxylic acid hydrochloride (1:1)] belongs 26 nM; to `O=C(O)C1CCc2[nH]c3ncnc(N4CCc5ccccc54)c3c2C1` (racemic) [Example 185, (RS)-4-(2,3-Dihydro-1H-indol-1-yl)-6,7,8,9-tetrahydro-5H-pyrimido[4,5-b]indole-6-carboxylic acid], 8990 nM; to `O=C(O)C1CCc2[nH]c3ncnc(Nc4ccccc4N4CCOCC4)c3c2C1` (racemic) [Example 186, (RS)-4-{[2-(Morpholin-4-yl)phenyl]amino}-6,7,8,9-tetrahydro-5H-pyrimido[4,5-b]indole-6-carboxylic acid], 911 nM.
In turn, `O=C(O)CNC(=O)C1CCc2[nH]c3ncnc(Nc4ccc(F)cc4OCCO)c3c2C1` (racemic) [Example 187, (RS)—N-[(4-{[4-Fluoro-2-(2-hydroxyethoxy)phenyl]amino}-6,7,8,9-tetrahydro-5H-pyrimido[4,5-b]indol-6-yl)carbonyl]glycine] returned a half-maximal inhibitory concentration (IC50) of 123 nM.
For the compound `CN(C)C(=O)C1CCc2[nH]c3ncnc(Nc4ccccc4OC4CCCC4)c3c2C1` (racemic) [Example 188, (RS)-4-{[2-(Cyclopentyloxy)phenyl]amino}-N,N-dimethyl-6,7,8,9-tetrahydro-5H-pyrimido[4,5-b]indole-6-carboxamide], the midpoint of inhibition, the IC50, lay at 710 nM.
To `CNC(=O)C1CCc2[nH]c3ncnc(Nc4ccccc4OC4CCCC4)c3c2C1` (racemic) [Example 189, (RS)-4-{[2-(Cyclopentyloxy)phenyl]amino}-N-methyl-6,7,8,9-tetrahydro-5H-pyrimido[4,5-b]indole-6-carboxamide] belongs 84 nM.
To `CCNC(=O)C1CCc2[nH]c3ncnc(Nc4ccccc4OC4CCCC4)c3c2C1` (racemic) [Example 190, (RS)-4-{[2-(Cyclopentyloxy)phenyl]amino}-N-ethyl-6,7,8,9-tetrahydro-5H-pyrimido[4,5-b]indole-6-carboxamide] belongs 88 nM; to `O=C(NC1CC1)C1CCc2[nH]c3ncnc(Nc4ccccc4OC4CCCC4)c3c2C1` (racemic) [Example 191, (RS)-4-{[2-(Cyclopentyloxy)phenyl]amino}-N-cyclopropyl-6,7,8,9-tetrahydro-5H-pyrimido[4,5-b]indole-6-carboxamide], 171 nM.
To `CN1CCN(C(=O)C2CCc3[nH]c4ncnc(Nc5ccccc5OC5CCCC5)c4c3C2)CC1` (racemic) [Example 192, (RS)-(4-{[2-(Cyclopentyloxy)phenyl]amino}-6,7,8,9-tetrahydro-5H-pyrimido[4,5-b]indol-6-yl)(4-methylpiperazin-1-yl)methanone] belongs 181 nM.
Take `O=C(Nc1ccccc1)C1CCc2[nH]c3ncnc(Nc4ccccc4OC4CCCC4)c3c2C1` (racemic) [Example 193, (RS)-4-{[2-(Cyclopentyloxy)phenyl]amino}-N-phenyl-6,7,8,9-tetrahydro-5H-pyrimido[4,5-b]indole-6-carboxamide]: the IC50 came to 2890 nM.
Turning to `CCNC(=O)C1CCc2[nH]c3ncnc(Nc4cc(F)ccc4OC)c3c2C1` (racemic) [Example 194, (RS)—N-Ethyl-4-[(5-fluoro-2-methoxyphenyl)amino]-6,7,8,9-tetrahydro-5H-pyrimido[4,5-b]indole-6-carboxamide], half-maximal inhibition (IC50) required 159 nM.
To `COc1ccc(F)cc1Nc1ncnc2[nH]c3c(c12)CC(C(=O)NC(C)C)CC3` (racemic) [Example 195, (RS)-4-[(5-Fluoro-2-methoxyphenyl)amino]-N-(propan-2-yl)-6,7,8,9-tetrahydro-5H-pyrimido[4,5-b]indole-6-carboxamide] belongs 123 nM.
To `COc1ccc(F)cc1Nc1ncnc2[nH]c3c(c12)CC(C(=O)N1CCN(C)CC1)CC3` (racemic) [Example 196, (RS)-{4-[(5-Fluoro-2-methoxyphenyl)amino]-6,7,8,9-tetrahydro-5H-pyrimido[4,5-b]indol-6-yl}(4-methylpiperazin-1-yl)methanone] belongs 115 nM.
